We go through one substance from patent publication US20180111991A1, “MODULATORS OF ACTIVIN AND METHODS FOR MODULATING IMMUNE RESPONSES AND T FOLLICULAR HELPER CELLS” (LA JOLLA INSTITUTE FOR ALLERGY AND IMMUNOLOGY, priority 2014, published 2018).

“Also recorded” adds a separate entry of the source.

In test [1] the test system is human naïve CD4 T cells. Kind of test: qPCR / flow cytometry of LIF, PRDM1, SLAMF1, ITGβ7 on day 3 differentiated cells. The settings on record: for PRDM1 (BLIMP1) expression: RNA-seq and qPCR. In kind it is cell-based. The text has this:
FIG. 2A-O: Activin A plays a synergic role with IL-12 and molds the human Tfh gene program. (A-B) Bead purified naïve CD4 T cells from multiple healthy subjects were stimulated by anti CD3/CD28 beads on 96 well plates, in the presence of commercial human recombinant activin A, with or without IL-12. […] A representative donor is shown in (A). Data from 12 donors from 6 independent experiments are shown in (B). […] Data from one experiment representative of two are depicted (n=3). (D) Cells were cultured in vitro with different doses of activin A combined with a fixed amount of IL-12 for 5 days in the presence of anti-activin A mAb MOR8806 (block) or isotype control mAb (isotype). Graphs show mean and SEM from 3 independent experiments (n=8). Dotted lines indicate the average percentages of PD-1^+CXCR5^+ cells induced by IL-12 with isotype control mAb from 8 donors. (E) CCR7 MFI on day 5 in vitro differentiated cells. […] (J) RNA-seq analysis on day 3 in vitro differentiated cells. The “Volcano” plots show the absolute gene expression data set (RPKM) from cells differentiated with activin A and IL-12 versus cells differentiated with beads only. […] (K) Heat-map showing absolute expression (RPKM) of selected Tfh signature genes on cells differentiated with beads only, IL-12, activin A or activin A+IL12. (L and N) Relative expression (2-ΔCt) of LIF and PRDM1 was determined by qPCR. (M and O) SLAMF1 and ITGβ7 expression by flow cytometry. In (L) to (0) all the data were obtained from day 3 in vitro differentiated cells and are from at least 3 or more independent experiments (n=9 or higher). Bars show mean and SEM. * p<0.05, ** p<0.01 and *** p<0.001. RNA was isolated by QIAGEN RNeasy spin columns and reverse-transcribed into cDNA using Superscript II Reverse Transcriptase (Invitrogen). Quantitative real-time PCR of ACTB, LIF, and PRDM1 was performed using the following primers: ACTB forward, [NT], ACTB reverse, [NT] forward, [NT] reverse, [NT]; and PRDM1 forward, [NT], PRDM1 reverse [NT]. Real-time PCR was set up with Applied Biosystem SYBR Green Master Mix.

Test [2] has as its system human naïve CD4 T cells. Nature of the test: Intracellular cytokine staining after PMA/Ionomycin restimulation. In kind it is cell-based. The procedure: For surface staining, primary-staining panels used for phenotypic analysis or for cell sorting known in the art were used. For the intranuclear staining: cells were treated with the FoxP3 Fixation/Permeabilization kit (eBioscience) and stained in Permeabilization buffer (eBioscience). For cytokine staining: day 3 or day 5 in vitro differentiated cells (specified in the main text or in figure legends) cells were stimulated for 5 hours at 37° C. with Phorbol 12-myristate 13-acetate (PMA, 25 ng/ml) and Ionomycin (1 μg/ml) in the presence of Brefeldin A (5 μg/ml). Cells were fixed with PBS 2% FBS, 1% PFA and permeabilized with PBS 2% FBS, 0.5% Saponin (from quillaja bark, Sigma-Aldrich). Samples were analyzed on a LSR Fortessa Cell Analyzer (BD, Bioscience). Flow cytometry data were analyzed with FlowJo (Tree Star). For cell sorting, cells were sorted using sorted using a FACS Aria (BD, Bioscience).

Test [3] has as its system autologous memory B cells. Nature of the test: T-B co-culture, B cell help. In kind it is cell-based, human. The settings on record: CD4 T cells differentiated with activin A+IL-12, 7 days with SEB.
Test [4] deals with mouse naïve CD4 T cells. Nature of the test: Mouse CD4 T cell differentiation. It counts as cell-based, mouse (BALB/c, C57BL/6). The procedure: Naïve CD4^+ T cells were isolated from spleen using the Naïve CD4^+ T cell isolation kit (Stem Cell). Purity was 92% or higher. Naïve CD4^+ T cells (2×10^5 cells/well) were cultured for 3 days with recombinant human/mouse/rat activin A (50 ng/ml, R&D Systems), recombinant mouse IL-12 (10 ng/ml, Peprotech), and/or recombinant mouse IL-6 (20 ng/ml, Peprotech) in the presence of plate-bound anti-mouse-CD3 mAb (8 μg/ml, clone 145-2C11, BioXcell) and anti-mouse-CD28 (8 μg/ml, clone 37.51, BioXcell), in RPMI medium, supplemented with 10% fetal bovine serum, GlutaMAX, penicillin/streptomycin, and 2.5 μM β-mercaptoethanol. After 3 days, cells were removed from stimuli and further cultured for 2 additional days in IL-2 (50 U/mL,) and the same cytokine combination used at day 0. Phenotype was quantified by FACS at day 5 of the in vitro culture.

In test [5] the test system is rhesus macaque naïve CD4 T cells. Nature of the test: Non-human primate (NHP) differentiation. The conditions noted are these: 5 days. It counts as cell-based, macaca mulatta (rhesus macaques). The procedure:
CD4^+ T cells from rhesus macaque PBMCs were enriched using the Non-Human Primate CD4^+ T Cell Isolation Kit (Miltenyi Biotec). Naïve CD4^+ T cells were isolated by FACS sorting as CD4^+CD45RA^+CD95^−CD28^+CCR7^+ cells. Naïve CD4^+ T cells (7.5×10^4 cells/well) were activated by plate-bound anti-human-CD3 and anti-human-CD28 (both at 5 μg/ml, BD) and cultured with recombinant human/mouse/rat activin A (50 ng/ml) and/or recombinant human IL-12 (5 ng/ml) for 5 days. Phenotype was assessed by flow cytometry.

Test [6] concerns SMAD2/3. Kind of test: Analysis of phosphorylated SMAD2/3 in tonsil CD4 T cells. In kind it is cell-based, human. The conditions noted are these: for P-SMAD induction: activin A. The text has this:
Fresh PBMCs and tonsil mononuclear cells were serum-starved over night in AIM-V medium. […] Following stimulation, the cells were fixed in BD Phosflow™ Fix Buffer I (BD Biosciences), then permeabilized using BD Phosflow™ Perm Buffer III (BD Biosciences) following manufacture's instruction.

As to “activin A: commercial recombinant cytokine, homodimer of the INHBA gene product (inhibin beta A)”, the “LIF and LTα expression” value in test [1] (CD4 T cells cultured with activin A) is “enhanced CD4 T cell expression of LIF and LTα”. The “PRDM1 (BLIMP1) expression” value is recorded as “express less PRDM1 (Blimp1)” in test [1] (day 3 differentiated cells) and “significant downregulation of PRDM1” in test [1] (day 3 differentiated cells, listed as Activin A). Moreover, in test [1] (day 3 differentiated cells, flow cytometry), the ITGβ7 expression entry is on record as “downregulated in the presence of activin A”. Moreover, the IL-21 production result in test [2] (cells cultured with activin A+IL-12, PMA/Ionomycin re-stimulation) is given as “retained full IL-21 production potential”. In test [2] (day 3 cells, PMA/Ionomycin restimulation), the “TNFα and LTα protein expression” value was “superior ability of CD4 T cells cultured with activin A to express TNFα and LTα proteins”. Moreover, the “B cell help (B cell proliferation and survival, plasmablast differentiation, IgG production)” value in test [3] was “functionally competent B cell helpers”. For the same substance, the “in vitro mouse Tfh differentiation” value in test [4] (activin A in the presence of IL-6) is recorded as “did not result in activin A mediated promotion of in vitro mouse Tfh differentiation”. The “PD-1 and CXCR5 expression” value in test [4] (mouse CD4 T cells, activin A alone or with IL-12, C57BL/6 and BALB/c) was “did not have any relevant effect on PD-1 and CXCR5 expression by mouse CD4 T cells; also recorded: No relevant CXCR5 and PD-1 induction”. For the same substance, the “induction of PD-1+CXCR5+ cells” value in test [5] was “Potent induction of PD-1^+CXCR5^+ cells; also recorded: potent CXCR5 and PD-1 inducer for both human and non-human primate activated naïve CD4 T cells”. The P-SMAD induction entry in test [6] (tonsil PD-1intCXCR5int mTfh cells) is recorded as “moderate but specific P-SMAD induction”; in test [6] (tonsil fully mature GC Tfh cells), “did not”. The “phosphorylation of SMAD2/3” value in test [6] (tonsil naïve CD4 T cells cultured with activin A) is recorded as “quickly phosphorylated SMAD2/3”.
